These results are taken from patent US10322097B2, “Treatment of subjects with multidrug-resistant cancer” (priority 2015, dated 2019).

Values after ≈ are worked out from the molar mass of the structure shown. Read-outs that look alike come from different tables or passages of the source.

Data set [1] deals with DLD-1 Bax-Bak-/- colon cancer cells. The data set can be described thus: MTT cytotoxicity assay, DLD-1 Bax-Bak-/-. In kind it is cell-based. The settings on record: for IC50: Homo sapiens, DLD-1, 72 h, MTT, 3 days, read-out: IC50 DLD-1 Bax-Bak-/- colon cancer cells; for Resistant Factor: IC50 DLD-1 Bax-Bak-/- divided by IC50 DLD-1 Bax-Bak+/+. Here is the method:
(§1) Cell cultures and cytotoxicity assays have been used. Celastrol was dissolved in DMSO at a final concentration of 100 mmol/L and stored at −20° C. Cytotoxicity was assessed using the 3-(4,5-dimethylthiazol-2-yl)-2,5-diphenyltetrazolium bromide assay. 4000 cells from HCT116 p53^+/+ or p53^−/− colon cancer cells and DLD-1 Bax-Bak^+/+ or Bax-Bak^−/− colon cancer cells were seeded on 96-well plates per well. […] Subsequently, 10 μL of MTT reagents were added to each well and incubated at 37° C. for 4 hours followed by the addition of 100 μL solubilization buffer (10% SDS in 0.01 mol/L HCl) and overnight incubation. […] The percentage of cell viability was calculated using the following formula: Cell viability (%)=Cells number treated/Cells number DMSO control×100. Data were obtained from three independent experiments.

Data set [2] concerns HCT116 p53+/+ colon cancer cells. Kind of data set: MTT cytotoxicity assay, HCT116 p53+/+. In kind it is cell-based. The settings on record: Homo sapiens, HCT-116, 72 h, read-out: IC50 HCT116 p53+/+ colon cancer cells. Here is the method:
as §1
For orientation: Tetrazolium dyes change colour on reduction, which living cells bring about.

Data set [3] relates to DLD-1 Bax-Bak+/+ colon cancer cells. Kind of data set: MTT cytotoxicity assay, DLD-1 Bax-Bak+/+. The settings on record: Homo sapiens, DLD-1, 72 h; MTT, 3 days; read-out: IC50 DLD-1 Bax-Bak+/+ colon cancer cells. The data set is classed as cell-based. The protocol:
as §1

For data set [4], the system named is MCF-7 (Breast) doxorubicin resistant cancer cells. The data set can be described thus: MTT cytotoxicity assay, MCF-7 doxorubicin resistant. The data set is classed as cell-based, human. The protocol:
Cell cultures and cytotoxicity assays have been used. Celastrol was dissolved in DMSO at a final concentration of 100 mmol/L and stored at −20° C. Cytotoxicity was assessed using the 3-(4,5-dimethylthiazol-2-yl)-2,5-diphenyltetrazolium bromide assay. 4000 cells from MCF-7 doxorubicin sensitive/resistant breast cancer cells or CEM doxorubicin sensitive/resistant leukemia cells were seeded on 96-well plates per well. After overnight pre-incubation, the cells were exposed to different concentrations of celastrol (0.039-100 μmol/L) or doxorubicin for 3 days. Subsequently, 10 μL of MTT reagents were added to each well and incubated at 37° C. for 4 hours followed by the addition of 100 μL solubilization buffer (10% SDS in 0.01 mol/L HCl) and overnight incubation. Absorbance at 585 nm was determined from each well the next day. The percentage of cell viability was calculated using the following formula: Cell viability (%)=Cells number treated/Cells number DMSO control×100. Data were obtained from three independent experiments.

Data set [5] relates to HCT116 p53-/- colon cancer cells. Kind of data set: MTT cytotoxicity assay, HCT116 p53-/-. In kind it is cell-based. The settings on record: for IC50: Homo sapiens, HCT-116, 72 h, read-out: IC50 HCT116 p53-/- colon cancer cells; for Resistant Factor: IC50 HCT116 p53-/- divided by IC50 HCT116 p53+/+. The protocol:
as §1

The test system of data set [6] is A2780 (Ovary) taxol sensitive cancer cells. Kind of data set: MTT cytotoxicity assay, A2780 taxol sensitive. In kind it is cell-based. Particulars: Homo sapiens, A2780, 72 h; MTT, 3 days; read-out: IC50 A2780 (Ovary) (Taxol sensitive). The protocol:
(§2) Cell cultures and cytotoxicity assays have been used. Celastrol was dissolved in DMSO at a final concentration of 100 mmol/L and stored at −20° C. Cytotoxicity was assessed using the 3-(4,5-dimethylthiazol-2-yl)-2,5-diphenyltetrazolium bromide assay. 4000 cells from A549 (lung), A2780 (ovary), HCT-8 (colon) and MCF-7 (breast) cancer cells were seeded on 96-well plates per well. After overnight pre-incubation, the cells were exposed to different concentrations of celastrol (0.039-100 μmol/L) or taxol for 3 days. Subsequently, 10 μL of MTT reagents was added to each well and incubated at 37° C. for 4 hours followed by the addition of 100 μL solubilization buffer (10% SDS in 0.01 mol/L HCl) and overnight incubation. Absorbance at 585 nm was determined from each well the next day. The percentage of cell viability was calculated using the following formula: Cell viability (%)=Cells number treated/Cells number DMSO control×100. Data were obtained from three independent experiments.

The subject of data set [7] is A549 (Lung) taxol sensitive cancer cells. The data set can be described thus: MTT cytotoxicity assay, A549 taxol sensitive. The data set is classed as cell-based. Particulars: Homo sapiens, A549, 72 h; MTT, 3 days; read-out: IC50 A549 (Lung) (Taxol sensitive). Here is the method:
as §2

Data set [8] deals with HCT-8 (Colon) taxol sensitive cancer cells. Kind of data set: MTT cytotoxicity assay, HCT-8 taxol sensitive. The data set is classed as cell-based. The settings on record: Homo sapiens, HCT-8, 72 h; MTT, 3 days; read-out: IC50 HCT-8 (Colon) (Taxol sensitive). The protocol:
as §2

The subject of data set [9] is MCF-7 (Breast) taxol resistant cancer cells. Kind of data set: MTT cytotoxicity assay, MCF-7 taxol resistant. In kind it is cell-based, human. The protocol: as §2
The subject of data set [10] is A549 taxol-resistant lung cancer cells. Kind of data set: MTT cytotoxicity of taxol in presence or absence of celastrol. The data set is classed as cell-based. The settings on record: Homo sapiens, A549, 72 h, 3 days. Here is the method: Cell cultures and cytotoxicity assays have been carried out. Celastrol was dissolved in DMSO at a final concentration of 100 mmol/L and stored at −20° C. Cytotoxicity was assessed using the 3-(4,5-dimethylthiazol-2-yl)-2,5-diphenyltetrazolium bromide assay. 4000 cells from A549 taxol-resistant lung cancer cells were seeded on 96-well plates per well. After overnight pre-incubation, the cells were exposed to different concentrations of taxol (0.019-100 μmol/L) in the presence or absence of celastrol (0.5 μM) for 3 days. Subsequently, 10 μL of MTT reagents was added to each well and incubated at 37° C. for 4 hours followed by the addition of 100 μL solubilization buffer (10% SDS in 0.01 mol/L HCl) and overnight incubation. […] The percentage of cell viability was calculated using the following formula: Cell viability (%)=Cells number treated/Cells number DMSO control×100. Data were obtained from three independent experiments.

The test system of data set [11] is A2780 (Ovary) taxol resistant cancer cells. The data set can be described thus: MTT cytotoxicity assay, A2780 taxol resistant. In kind it is cell-based, human. Particulars: for Resistant Factor: A2780 taxol resistant versus taxol sensitive. Here is the method: as §2
Data set [12] has as its system HCT-8 (Colon) taxol resistant cancer cells. The data set can be described thus: MTT cytotoxicity assay, HCT-8 taxol resistant. Particulars: for Resistant Factor: HCT-8 taxol resistant versus taxol sensitive. In kind it is cell-based, human. The protocol: as §2
Data set [13] has as its system A549 (Lung) taxol resistant cancer cells. Kind of data set: MTT cytotoxicity assay, A549 taxol resistant. In kind it is cell-based, human. Particulars: for Resistant Factor: A549 taxol resistant versus taxol sensitive. Here is the method:
as §2

In data set [14] the test system is MCF-7 (Breast) taxol sensitive cancer cells. The data set can be described thus: MTT cytotoxicity assay, MCF-7 taxol sensitive. The settings on record: Homo sapiens, MCF7, 72 h; MTT, 3 days; read-out: IC50 MCF-7 (Breast) (Taxol sensitive). In kind it is cell-based. The protocol:
as §2

In the next data set the target is P-gp (Homo sapiens, UniProt P08183). The data set can be described thus: Rho123 efflux assay in A549 taxol-resistant lung cancer cells (flow cytometry). The settings on record: 0.5 μM celastrol, pristimerin or dihydrocelastrol, or 10 μM verapamil, 24 h, then Rho123 1 h. Here is the method:
A549 taxol-resistant lung cancer cells were seeded in 6 well-plates at a final concentration of 2×10^5 cells per well and cultured for 24 h at 37° C. in an atmosphere containing 5% CO2. […] Subsequently, 5 mg/mL Rho123 was added to each well and the wells were incubated for another 1 h at 37° C. At the end of the incubation, the accumulation of Rho123 was stopped by washing the cells five times with ice-cold PBS. After cell centrifugation, cell pellets were resuspended in 400 μL PBS. […] All data acquisition and analyses were performed with CellQuest (BD Biosciences, San Jose, Calif., USA) in triplicate in three independent experiments, and the results were shown as the mean of fluorescence intensity.
A549 taxol-resistant lung cancer cells were seeded in 6 well-plates at a final concentration of 2×10^5 cells per well and cultured for 24 h at 37° C. in an atmosphere containing 5% CO2. […] All data acquisition and analyses were performed with CellQuest (BD Biosciences, San Jose, Calif., USA) in triplicate in three independent experiments, and the results were shown as the mean of fluorescence intensity.

Sequence of P-gp (P08183 whole entry): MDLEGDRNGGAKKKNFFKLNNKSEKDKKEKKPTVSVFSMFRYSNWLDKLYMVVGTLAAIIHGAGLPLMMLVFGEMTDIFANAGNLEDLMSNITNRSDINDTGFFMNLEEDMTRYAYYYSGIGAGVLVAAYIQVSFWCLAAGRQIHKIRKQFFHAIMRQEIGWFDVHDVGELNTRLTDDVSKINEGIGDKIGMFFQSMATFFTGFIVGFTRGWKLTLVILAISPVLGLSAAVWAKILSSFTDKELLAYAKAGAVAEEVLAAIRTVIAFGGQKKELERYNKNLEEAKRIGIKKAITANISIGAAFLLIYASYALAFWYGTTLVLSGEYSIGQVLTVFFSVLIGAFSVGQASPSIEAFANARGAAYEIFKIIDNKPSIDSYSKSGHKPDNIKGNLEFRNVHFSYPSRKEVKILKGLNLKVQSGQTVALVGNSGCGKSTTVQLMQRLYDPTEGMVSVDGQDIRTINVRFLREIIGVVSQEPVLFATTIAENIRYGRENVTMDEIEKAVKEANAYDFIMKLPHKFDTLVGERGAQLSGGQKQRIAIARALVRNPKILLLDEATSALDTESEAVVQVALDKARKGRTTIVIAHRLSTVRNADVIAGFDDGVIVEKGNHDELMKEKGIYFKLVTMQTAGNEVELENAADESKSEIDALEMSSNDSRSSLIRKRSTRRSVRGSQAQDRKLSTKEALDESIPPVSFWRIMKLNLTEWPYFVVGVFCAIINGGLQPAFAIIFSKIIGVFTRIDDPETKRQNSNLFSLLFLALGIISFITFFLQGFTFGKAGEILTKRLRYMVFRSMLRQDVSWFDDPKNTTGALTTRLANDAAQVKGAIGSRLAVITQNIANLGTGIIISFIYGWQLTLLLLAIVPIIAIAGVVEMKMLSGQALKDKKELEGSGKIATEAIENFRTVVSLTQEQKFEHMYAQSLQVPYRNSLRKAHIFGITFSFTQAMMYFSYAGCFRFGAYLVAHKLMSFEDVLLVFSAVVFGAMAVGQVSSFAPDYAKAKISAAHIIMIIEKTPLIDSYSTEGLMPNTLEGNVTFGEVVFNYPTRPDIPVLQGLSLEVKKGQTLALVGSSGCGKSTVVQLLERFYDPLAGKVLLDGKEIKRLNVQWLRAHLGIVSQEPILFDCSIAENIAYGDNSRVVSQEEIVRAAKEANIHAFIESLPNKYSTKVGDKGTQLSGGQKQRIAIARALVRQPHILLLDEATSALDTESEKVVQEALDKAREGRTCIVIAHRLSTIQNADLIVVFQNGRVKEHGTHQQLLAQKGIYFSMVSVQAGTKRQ

In the case of `COc1cccc2c1C(=O)c1c(O)c3c(c(O)c1C2=O)C[C@@](O)(C(=O)CO)C[C@@H]3O[C@H]1C[C@H](N)[C@H](O)[C@H](C)O1` [Doxorubicin, doxorubicin], the IC50 in [1] is 0.539 µg/mL; in data set [2], 0.52 µM; in data set [3], 0.0523 µg/mL; in data set [4] (Homo sapiens, MCF7, 72 h, MTT, 3 days, read-out: IC50 MCF-7 (Breast) (Doxorubicin resistant)), 10 µg/mL (≈ 18.4 µM); in data set [5], 10.2 µM. Moreover, the “Resistant Factor” value in data set [1] is 10.31; in [4] (MCF-7 doxorubicin resistant versus doxorubicin sensitive) it was 21.6; in [5] it was 19.52.

Take `COc1cc([C@@H]2c3cc4c(cc3[C@@H](O[C@@H]3O[C@@H]5CO[C@@H](C)O[C@H]5[C@H](O)[C@H]3O)[C@H]3COC(=O)[C@H]23)OCO4)cc(OC)c1O` [Etoposide, etoposide]: the IC50 in [1] turned out to be 40.4 µM; in data set [2] (MTT, 3 days), 0.94 µM; in data set [3], 2.36 µM; in data set [5] (MTT, 3 days) it was 10.6 µM. The “Resistant Factor” value was determined as 17.12 in data set [1] and 11.28 in [5].

Consider `CN[C@@H]1C[C@H]2O[C@@](C)([C@@H]1OC)n1c3ccccc3c3c4c(c5c6ccccc6n2c5c31)C(=O)NC4` [Staurosporine, staurosporine], for which the “Resistant Factor” value was found to be 3.34 in data set [1] and 13.01 in data set [5]. Besides, the IC50 in data set [5] (MTT, 3 days) came to 0.048 µM.

For the compound `CC(=O)O[C@H]1C(=O)[C@@]2(C)[C@H]([C@H](OC(=O)c3ccccc3)[C@]3(O)C[C@H](OC(=O)[C@H](O)[C@@H](NC(=O)c4ccccc4)c4ccccc4)C(C)=C1C3(C)C)[C@]1(OC(C)=O)CO[C@@H]1C[C@@H]2O` [Taxol, paclitaxel (taxol)], the IC50 in data set [6] was under 0.001 µM; in data set [7], 0.034 µM; in [8] it was under 0.001 µM; in data set [1], over 0.1 µM; in data set [9] (Homo sapiens, MCF7, 72 h, MTT, 3 days, read-out: IC50 MCF-7 (Breast) (Taxol resistant)), 5 µM; in data set [2] (MTT, 3 days), 0.0195 µM. The IC50 in [10] (co-treated with 0.5 μM celastrol, read-out: mean IC50 of taxol in the presence of celastrol) was determined as 2.17 µM; in data set [10] (taxol alone, read-out: mean IC50 of taxol) it was 36 µM; in data set [3], 0.00431 µM; in data set [11] (Homo sapiens, A2780, 72 h, MTT, 3 days, read-out: IC50 A2780 (Ovary) (Taxol resistant)) it was 62 µM; in [12] (Homo sapiens, HCT-8, 72 h, MTT, 3 days, read-out: IC50 HCT-8 (Colon) (Taxol resistant)), 32 µM; in [13] (Homo sapiens, A549, 72 h, MTT, 3 days, read-out: IC50 A549 (Lung) (Taxol resistant)), 30.4 µM. Further, the IC50 in data set [14] was under 0.001 µM; in data set [5] (MTT, 3 days), 0.251 µM. For the same compound, the “Resistant Factor” value in [1] is reported as over 23.2; in data set [9] (MCF-7 taxol resistant versus taxol sensitive), 5000; in data set [11] it was over 62000; in [11] (listed as taxol) it was “over 62000”; in data set [12], over 31000; in data set [12] (listed as taxol), 31000. Also, the figures for the “Resistant Factor” value in data set [13], in data set [13] (listed as taxol) and in data set [5] were 894.12, “over 894” and 12.87, respectively.

Consider `COC(=O)[C@]1(C)CC[C@]2(C)CC[C@]3(C)C4=CC=C5C(=CC(=O)C(O)=C5C)[C@]4(C)CC[C@@]3(C)[C@@H]2C1` [pristimerin], for which the “P-gp activity / Rho123 accumulation (Example 9)” value at P-gp is listed as “showed P-pg inhibition”.
